Test [1] relates to thoracic aorta constricted with phenylephrine. Briefly: Vasoconstriction inhibitory action (Test Example 2). Set-up: species or system Rats (Wistar). As to conditions: test compound 1 μM; rat thoracic aorta constricted with phenylephrine 1 μM. From the text: Rats (Wistar, 11-week old) were bleeded to death and laparotomized to take out the thoracic aorta. That aorta was cut into a ring of a length of about 3 mm in a conventional manner (Asano, T., et al., J. Pharmacol. Exp. Ther., 241, pp. 1033–1040 (1987)) and hung in 10-ml organ bath filled with Krebs-Hensright nutrient solution bubbled with a mixed gas of 95% O2 and 5% CO2. One end of the blood vessel was connected to an isometric transducer (FD Pickup TB-912T, Nihon Kohden) and applied with 2.5 g of resting tension, and constriction and relaxation reactions of the aorta were recorded.
The aorta was constricted with phenylephrine (1 μM, Sigma) and then added with a test compound (1 μM), and the vasoconstriction inhibitory action thereof was observed. The vasoconstriction inhibitory actions of the test compounds were calculated as relaxation ratios, which were based on the vasoconstriction with phenylephrine observed immediately before the addition of the test compounds taken as 100%.

In another test the test system is intraocular pressure. The test can be described thus: Intraocular pressure reducing action (Test Example 4). Format: in vivo, Japanese white rabbit. As to conditions: rabbit, 50 μl of aqueous solution dropped to the left eye. Here is the method:
A Japanese white rabbit having a body weight of about 2 kg was placed in a positioner and naturalized for one week before the experiment. An ophthalmologic local anesthesant (Benoxil) was administered to the left eye, and then intraocular pressure was measured by using a tonometer (Classic 30, Solan). The initial value of the intraocular pressure was measured, then 50 μl of an aqueous solution of a test compound was dropped to the left eye at various concentrations, and the intraocular pressure was measured with passage of time.

Test [2] deals with cerebral hippocampal neurons. The test can be described thus: Neurite outgrowth action (Test Example 5). Format: cell-based, Sprague-Dawley rats. As to conditions: rat hippocampal neurons, 24 hours after addition. The method, then: From 18 day-old Sprague-Dawley rats, cerebral hippocampal neurons were prepared according to the method of Neuman et al. (Neuman, H. R. et al., J. Neurosci., 22, pp. 854–862, 2002). The prepared neurons were cultured for 24 hours according to the method of Tanaka et al. (Tanaka, H. et al., J. Cell Biol., 158 (2), pp. 321–329, 2002), then the medium was exchanged with fresh medium, and test medicaments of various concentrations or equivalent amounts of vehicle were added. Twenty-four hours after the addition of the medicaments, neurite length of each neuron was measured for the medicament-added group and the no-addition group, and compared. The neurite length was evaluated according to the method of Neuman et al. (Neuman, H. R. et al., J. Neurosci., 22, pp. 854–862, 2002).

Test [3] concerns lipopolysaccharide-induced pulmonary inflammation. Briefly: Pulmonary inflammation suppressing action, LPS-induced (Test Example 8). As to conditions: mice, LPS inhalation, test compound by inhalation over 10 minutes, 3 hours after administration. Type of test: in vivo, BALB/c female mice. The source says:
According to Gonzales de Moraes, V L., et al., Br. J. Pharmacol., 123, pp. 631–6, 1998, suppressing action on pulmonary inflammation was studied. BALB/c female mice (7-week old) were used for the test, as the compound administration group and positive control group, each consisting of 7 mice, as well as the negative control group consisting of 5 mice. For induction of inflammation, a 0.03% physiological saline solution of a lipopolysaccharide (LPS, a mixture derived from Escherichia coli O55 and B5 strains, Sigma) was used. A test compound was dissolved in physiological saline to prepare solutions of various concentrations. The test animals were first inhaled with the aforementioned lipopolysaccharide solution for 10 minutes by using a pressurization type nebulizer (PARI-IS2) to induce inflammation. Then, 1 minute after the completion of the inhalation of the lipopolysaccharide solution, the animals were administered with a solution of test compound at various concentrations over 10 minutes by inhalation using the aforementioned nebulizer. The mice of the positive control group were administered with the same volume of physiological saline instead of the test compound solution over 10 minutes by inhalation. Three hours after the administration of the test compound, pulmonary cavities of the test animals were washed with physiological saline, and the total infiltrated leucocyte (WBC) number was counted.

A further test has as its system neutrophils. Briefly: Neutrophil migration inhibitory action, Boyden Chamber, FMLP (Test Example 6). Format: cell-based. As to conditions: 0.5 h, human neutrophils, FMLP 1 μM, 37° C., 30 minutes, read-out: concentration at which the migration of neutrophils is inhibited (IC50). Here is the method: Neutrophils were isolated from 50 to 100 ml of peripheral blood collected from healthy human donors by the method described in Test Example 1 to obtain a cell suspension (8×10^6/ml). Subsequently, solutions of a test compound at various concentrations were introduced into wells of a 96-well plate in a volume of 125 μl per well, the cell suspension of an equivalent volume was added to it and the plate was preincubated at room temperature for 5 minutes. During the preincubation, FMLP (1 μM, Sigma) solution was added to the lower chamber to set Boyden Chamber, the preincubated cell suspension was added to the upper chamber in a volume of 200 μl per well, and the cells were allowed to migrate at 37° C. under 5% carbon dioxide for 30 minutes. The filter after the migration was collected, and the non-migrated cells adhered to the surface that faced the upper chamber were carefully wiped off. Then, the migrated cells on the back surface were stained with DifQuick dye solution (International Reagents), washed with water and dried, and then absorbance was measured at 595 nm. The inhibition ratio against migration (%) of a test compound was calculated by using the following equation: Migration inhibition ratio (%)=(1−Absorbance of the group with addition of test compound/Absorbance of the group without addition of test compound)×100
Further, the migration inhibitory ratio was calculated with changing the test compound concentration, and a compound concentration providing an inhibition ratio of 50% was obtained as IC50. The compounds of the present invention obtained in Examples 1, 11, 12, 13, 14, 15, 16, 18, 19, 20, 21, 22, 24, 31, 41, 42, 47, 52, 53, 54, 55, 56, 57, 58, 59, 60, 62, 63, 64, 65, 66, 67, 68, 72, 73, 74, 75, 76, 77, 78, 79, 80, 81, 82, 83, 84, 87, 88, 89, 90, and 91 inhibited the migration of neutrophils at a concentration of 40 μM or less, and further, the compounds of Examples 1, 11, 12, 13, 14, 15, 19, 21, 22, 24, 31, and 41 inhibited the migration of neutrophils at a concentration of 10 μM or less. Further, trans-benzyl-[4-(2,3-dihydro-1,5-diazaphenalen-1-yl)cyclohexyl]amine inhibited the migration of neutrophils at a concentration of 40 μM or less.

The test system of test [4] is phosphorylated myosin regulatory light chain in neutrophils. Briefly: Action on amount of phosphorylated myosin regulatory light chain in the cells (Test Example 1). Type of test: cell-based. As to conditions: Neutrophil, 5 min; human neutrophils, reaction at 25° C. for 5 minutes; read-out: concentration at which the phosphorylation of myosin regulatory light chain is inhibited (IC50). The method, then: A volume of 50 to 100 ml of peripheral blood collected from healthy volunteers was centrifuged by using Mono-Poly separator solution (Dainippon Pharmaceutical) to prepare a neutrophil containing fraction. The neutrophils were washed with PBS(−) and resuspended in Hanks' Balanced Salt Solution (HBSS+, Gibco) to prepare a cell suspension (8×10^6/ml). The cell suspension was diluted to 5×10^6/ml, introduced into Eppendorf tubes in a volume of 0.4 ml each, then 0.1 ml each of solutions of a test compound at various concentrations were added to the suspension and allowed to react at 25° C. for 5 minutes. After the reaction, 0.1 ml of trichloroacetic acid solution was added to each reaction, the reaction mixture was gently shaken and centrifuged at 12,000 rpm (4° C., 5 minutes), and the supernatant was removed. Subsequently, 3 μl of 1 M Tris solution was added to the residue, the mixture was further mixed with 50 μl of extraction buffer (8 M urea, 0.02% 2-mercaptoethanol, 0.002% bromophenol blue) and left stand at room temperature for 1 hour. Then, the reaction mixture was loaded on a spin column (0.45 μm, Millipore) to remove the insoluble solids and a sample buffer for SDS polyacrylamide gel electrophoresis (25 mM, Tris-HCl pH 6.8, 2.5% 2-mercaptoethanol, 2% sodium dodecylsulfate, 5% sucrose, 0.002% bromophenol blue as final concentrations) was added, and 10 μl of each sample was subjected to electrophoresis.
The gel after the electrophoresis was blotted on a nitrocellulose membrane (BioRad), blocked with 5% skim milk, and reacted successively with antibodies pLC1 (Sakurada K. et al, Am. J. Physiol., 274, C1563–C1572 (1998)), which specifically recognize the phosphorylated myosin regulatory light chain, and donkey anti-mouse IgG (Chemicon) conjugated with horseradish peroxidase. The band of the phosphorylated myosin regulatory light chain was detected on a film by using ECL Plus Kit (Amersham Pharmacia Biotech). This band was subjected to quantification using a densitometer. By using this value, the inhibitory ratio (%) for phosphorylation of the myosin regulatory light chain was calculated by using the following equation. Phosphorylation inhibition ratio (%)=1−(Band intensity of phosphorylated myosin regulatory light chain with addition of the test compound/Band intensity of phosphorylated myosin regulatory light chain without addition of the test compound)×100
Further, the phosphorylation inhibition ratio was calculated with changing the concentrations of the test compound, and a compound concentration providing an inhibition ratio of 50% was obtained as IC50.

On to `Cl.O=C(O)CCN1CCC(N2CCc3cncc4cccc2c34)CC1` [Example 16], for which the “vasoconstriction inhibitory action (relaxation ratio)” value in test [1] is recorded as “significant vasoconstriction inhibitory action”. For the same compound, the “intraocular pressure reducing action” value in the test on intraocular pressure was “significant intraocular pressure reducing action”. For the same compound, the “neurite outgrowth (neurite length)” value in test [2] is recorded as “significant neurite outgrowth axis extension”.

Consider `COCCN1CCC(N2CCc3cncc4cccc2c34)CC1.Cl` [Example 19], for which the “vasoconstriction inhibitory action (relaxation ratio)” value in test [1] is “significant vasoconstriction inhibitory action”. Also, the “intraocular pressure reducing action” value with intraocular pressure was “significant intraocular pressure reducing action”. Besides, the “pulmonary inflammation, total infiltrated leucocyte (WBC) number” value in test [3] is recorded as “significantly improved the pathological condition”. Besides, in test [2], the “neurite outgrowth (neurite length)” value is on record as “significant neurite outgrowth axis extension”.

As to `CN[C@H]1CC[C@H](N2CCc3cncc4cccc2c34)CC1.Cl` [Example 41], in test [1], the “vasoconstriction inhibitory action (relaxation ratio)” value is on record as “significant vasoconstriction inhibitory action”. Also, the “intraocular pressure reducing action” value in the test on intraocular pressure is listed as “significant intraocular pressure reducing action”. For the same compound, the “pulmonary inflammation, total infiltrated leucocyte (WBC) number” value in test [3] is given as “significantly improved the pathological condition”. Further, the “neurite outgrowth (neurite length)” value in test [2] was “significant neurite outgrowth axis extension”.

Turning to `CC(=O)NCCN1CCC(N2CCc3cncc4cccc2c34)CC1` [Example 42], in the test with intraocular pressure, the “intraocular pressure reducing action” value was “significant intraocular pressure reducing action”. Also, the IC50 (in the test with neutrophils; in test [4]) was ≤ 40 µM each time.

As to `CN(C)[C@H]1CC[C@H](N2CCc3cncc4cccc2c34)CC1` [Example 53, trans-[4-(2,3-dihydro-1,5-diazaphenalen-1-yl)cyclohexyl]dimethylamine], in the test with intraocular pressure, the “intraocular pressure reducing action” value was “significant intraocular pressure reducing action”. The IC50 (with neutrophils; in test [4]) was ≤ 40 µM each time.

Consider `FC1CNCCC1N1CCc2cncc3cccc1c23` (stereo not shown) [Example 54, 1-(3-fluoropiperidin-4-yl)-2,3-dihydro-1H-1,5-diazaphenalene], for which, in the test on intraocular pressure, the “intraocular pressure reducing action” value was “significant intraocular pressure reducing action”. Further, the IC50 (in the test on neutrophils; in test [4]) was ≤ 40 µM each time.

Regarding `CC(=O)N(C)CCN1CCC(N2CCc3cncc4cccc2c34)CC1` [Example 59, N-{2-[4-(2,3-dihydro-1,5-diazaphenalen-1-yl)piperidin-1-yl]ethyl}-N-methylacetamide], in the test on intraocular pressure, the “intraocular pressure reducing action” value is “significant intraocular pressure reducing action”. Besides, the IC50 (in the test with neutrophils; in test [4]) was ≤ 40 µM throughout.

Turning to `O=C1CCN1CCN1CCC(N2CCc3cncc4cccc2c34)CC1` [Example 60, 1-{2-[4-(2,3-dihydro-1,5-diazaphenalen-1-yl)piperidin-1-yl]ethyl}azetidin-2-one], the “intraocular pressure reducing action” value with intraocular pressure is recorded as “significant intraocular pressure reducing action”. Also, the IC50 (in the test on neutrophils; in test [4]) was ≤ 40 µM in each case.

On to `c1ccc(CN[C@H]2CC[C@H](N3CCc4cncc5cccc3c45)CC2)cc1` [trans-benzyl-[4-(2,3-dihydro-1,5-diazaphenalen-1-yl)cyclohexyl]amine], for which the IC50 (in the test with neutrophils; in test [4]) was ≤ 40 µM throughout.

The record behind these values is patent US7160894B2, “Tricyclic compound” (Asahi Kasei Pharma Corporation, priority 2003, dated 2007).
